In ChEMBL document CHEMBL1157318, “Caryophyllene sesquiterpenoids from a fungicolous isolate of Pestalotiopsis disseminata” (2006):
Activity calls are given as the source filed them. No cut-off for these calls is given here.

Key:
Candida albicans = test: Antimicrobial activity against Candida albicans ATCC 14053 at 100 ug/disk by agar disk diffusion method; assay type: functional, organism-based
Fusarium verticillioides = test: Antimicrobial activity against Fusarium verticillioides NRRL 25457 at 200 ug/disk by agar disk diffusion method; assay type: functional, organism-based
Aspergillus flavus = test: Antimicrobial activity against sAspergillus flavus NRRL 6541 at 200 ug/disk by agar disk diffusion method; assay type: functional, organism-based
Staphylococcus aureus = test: Antimicrobial activity against Staphylococcus aureus ATCC 29213 at 100 ug/disk by agar disk diffusion method; assay type: functional; conditions: for zone of inhibition at 100 µg/disc: read-out: IZ
Escherichia coli = test: Antimicrobial activity against sEscherichia coli ATCC 25922 at 100 ug/disk by agar disk diffusion method; assay type: functional, organism-based
Bacillus subtilis = test: Antimicrobial activity against Bacillus subtilis ATCC 6051 at 100 ug/disk by agar disk diffusion method; assay type: functional; conditions: for zone of inhibition at 100 µg/disc: read-out: IZ

SMILES | Activity (Candida albicans) | Activity (Fusarium verticillioides) | Activity (Aspergillus flavus) | zone of inhibition at 100 µg/disc (Staphylococcus aureus) | Activity (Escherichia coli) | zone of inhibition at 100 µg/disc (Bacillus subtilis) | Activity (Staphylococcus aureus) | Activity (Bacillus subtilis)
CC1(C)C[C@H]2[C@@]1(O)[C@@H](O)C[C@]1(C)C=C[C@@H](O)[C@]21CO | inactive | inactive | inactive | 8 mm | inactive | 12 mm | – | –
CC1(C)C[C@H]2[C@@]1(O)[C@@H](O)C[C@]1(C)[C@H](O)C=C[C@]21CO | inactive | inactive | inactive | – | inactive | – | inactive | inactive
CC1(C)C[C@@H]2/C(CO)=C\C=C/[C@@](C)(O)C[C@H](O)[C@]21O [6-HYDROXYPUNCTAPORONIN B] | inactive | inactive | inactive | 8 mm | inactive | 12 mm | – | –
